{"source": "patent US20060057657A1", "about": "“Stem cell selection and differentiation” (Oregon Health & Science University Technology & Research …, priority 2002, published 2006)", "format_in_all_cases": "cell-based, mouse", "key": {"ES cells [1]": {"tested_on": "ES cells", "assay": "JC-1 fluorescence sensitivity to MDR inhibitors (JC-1 staining and flow cytometry)", "conditions": "CsA 20 μM, verapamil 200 μM, reserpine 10 μM", "experimental": "ES cells were maintained in ES cell media consisting of DMEM (no pyruvate, high glucose) (Gibco-BRL), 15% fetal calf serum (FCS) (Hyclone), and supplements (as described in Robertson, E. J. (1987) IRL Press Limited, Oxford, page 71-112). Supplemental Leukemia Inhibitory Factor (LIF) (1:1000 dilution) was prepared by transfecting COS-7 cells (ATCC) with a LIF expression vector, pCAGGS-LIF, then collecting and testing the supernatant 48 hours later (as described in Smith, A. (1991) Journal of Tissue Culture Methods 13:89-94). Irradiated mouse embryonic fibroblasts (MEFs) were derived from d13 embryos for use as feeder cells (as described in Robertson (1987) (supra)). […]\nFor MDR inhibitor dose response assays, cells were trypsinized for 15 minutes, quenched with ES cell media, triturated to a single cell suspension, and centrifuged at 1000 rpm for 5 minutes. […] Following centrifugation, cells were washed […] with cold HBSS, centrifuged and resuspended in cold PBS at the same concentration, placed on ice, and analyzed within 60 minutes (as described in Cossarizza et al. (1993) Biochem. Biophys. Res. Commun. 197:40-45). […]\nUsing the cationic fluorescent dye, JC-1, functionally distinct populations of ES cells were identified. […] Generally, less than 5% of the cells maintained a “JC-1 green only” fluorescence profile when treated with any of these inhibitors. […]"}, "ES cells [2]": {"tested_on": "ES cells", "assay": "ES cell proliferation rate / doubling time under treatment", "experimental": "If grown in galactose as the sole carbon source, a sub-population of cells need to engage in active oxidative phosphorylation to convert galactose to glucose. In one embodiment, ES cells are selected in galactose-containing culture medium for an incubation period of about four days.\n(§1) In order to establish the relationship between ES cell JC-1 fluorescence, respiration and differentiation permissiveness, cells may be grown under hypoxic (<2% oxygen) or normnoxic conditions and assayed for JC-1 red/green ratio, oxygen consumption and lactate secretion, proliferation rate, ES cell self-renewal (STAT3 activity), and differentiation permissiveness by chimeric assays. ES cells with high mitochondrial membrane potential (as shown by high JC-1 red/green ratio) display low differentiation permissiveness, while those with low mitochondrial membrane potential (JC-1 green) display high differentiation permissiveness. […] ES cells on galactose also consume about 50% more oxygen than those sustained on glucose. ES cell proliferation rates for control and hypoxic cells (both with and without LIF) may be similar. […] STAT3 activity may be similar for normoxic and hypoxic cells."}, "ES cells [3]": {"tested_on": "ES cells", "assay": "Oxygen consumption of ES cells", "conditions": "ES cells on galactose", "from_the_text": "as §1"}, "ES cells [4]": {"tested_on": "ES cells", "assay": "Lactate secretion of ES cells", "conditions": "after 24 hours; normoxic and hypoxic ES cells about 80 mg/dl", "from_the_text": "as §1"}, "ES cells [5]": {"tested_on": "ES cells", "assay": "JC-1 red/green fluorescence (mitochondrial membrane potential) by flow analysis", "conditions": "galactose-containing culture medium, about four days", "procedure": "In order to assess if cells are primarily using oxidative phosphorylation or glycolysis, mitochondrial inner-membrane potential can be assayed by JC-1 fluorescence (1 ug/ml) in ES cells grown in both the presence (undifferentiated) and absence (differentiation) of LIF.\nThe cells of Example 1 were stained with 1 μg/ml 5,5′,6,6′-tetrachloro-1,1′,3,3′-tetraethyl-benzimidazolylcarbocyanine iodide (JC-1, Molecular Probes, Eugene, Oreg.) and flow cytometry was performed using a FACSCalibur flow cytometer (Becton Dickinson, San Jose, Calif.). Cells were stained as above and sorted using a FACSVantage SE cell sorter (Becton Dickinson)."}}}
{"molecule": "COC(=O)[C@H]1[C@H]2C[C@@H]3c4[nH]c5cc(OC)ccc5c4CCN3C[C@H]2C[C@@H](OC(=O)c2cc(OC)c(OC)c(OC)c2)[C@@H]1OC", "note": "[reserpine]", "values": [{"measurement": "shift of JC-1 fluorescence on addition of inhibitor", "setting": "ES cells [1]", "value": "dramatic shift of the majority of cells towards red fluorescence"}]}
{"molecule": "COc1ccc(CCN(C)CCCC(C#N)(c2ccc(OC)c(OC)c2)C(C)C)cc1OC", "note": "(stereo not drawn) [verapamil]", "values": [{"measurement": "shift of JC-1 fluorescence on addition of inhibitor", "setting": "ES cells [1]", "value": "dramatic shift of the majority of cells towards red fluorescence"}]}
{"molecule": "O=CC[C@@H](O)[C@H](O)[C@H](O)CO", "note": "[2-dG, 2-deoxy glucose]", "values": [{"measurement": "reduction of proliferation rate", "setting": "ES cells [2]; 2-deoxy glucose 0.5 mM", "value": "≤ 3", "unit": "fold"}]}
{"molecule": "O=C[C@H](O)[C@@H](O)[C@@H](O)[C@H](O)CO", "note": "[galactose]", "values": [{"measurement": "oxygen consumption, more than cells sustained on glucose", "setting": "ES cells [3]", "value": "about 50%"}, {"measurement": "lactate secretion", "setting": "ES cells [4]", "value": "< 10", "unit": "mg/dL"}, {"measurement": "sub-population of ES cells showing JC-1 red fluorescence", "setting": "ES cells [5]", "value": "slightly increased"}, {"measurement": "increase of doubling time", "setting": "ES cells [2]; galactose-containing culture medium, about four days", "value": "about 25%"}, {"measurement": "doubling time", "setting": "ES cells [2]; galactose-containing culture medium, about four days, 16 hours under standard conditions", "value": 20, "unit": "h"}]}
{"molecule": "CC[C@H]1/C=C/C=C/C[C@@H](C)[C@H](O)[C@@](C)(O)C(=O)[C@@H](C)[C@H](O)[C@@H](C)C(=O)[C@@H](C)[C@H](O)[C@@H](C)/C=C/C(=O)O[C@@H]2[C@H](C)[C@H](CC1)O[C@]1(CC[C@H](C)[C@H](C[C@@H](C)O)O1)[C@H]2C", "note": "[oligomycin]", "values": [{"measurement": "effect on proliferation rates", "setting": "ES cells [2]; oligomycin 3 μM or FCCP+ oligomycin", "value": "dramatically reduces proliferation rates"}]}
